Laboratory results published in patent US20250236617A1, “BICYCLIC TETRAHYDROTHIAZEPINE DERIVATIVES” (Hoffmann-La Roche Inc., priority 2022, published 2025).

Assays:
primary human T-cells [1] = assay: T-cell proliferation assay (CellTiter-Glo); assay type: cell-based; details: CD3 condition; for Emax proliferation (% activation): 5 days, 20 μM reference compound A1 = 100%; for EC50: proliferation after 5 days, CellTiter-Glo, read-out: Tcell Proliferation CD3 EC50
Method: For coating of plates, PBS++ only or PBS++ with CD3 antibody (concentration depending on donor and determined by CD3 titrations) is added 100 μl/well to Poly-D Lysine coated 96-well plates. Plates are sealed and incubated at room temperature for 3 hours on a table-top rocking platform. After incubation, plates are washed once with PBS−− and filled with 40 μl/well culture medium only. Compounds are then added (see next section) to medium only plates. After 3 hours of culturing the T-cells, cells are filtered through a cell strainer (Miltenyi Biotech, #130-041-407), counted again and concentration is adjusted to 1.25 Mio/ml.
Cells are then seeded 80 μl/well to the 40 μl/well including dispensed compounds according to plate layout. By adding cells, compounds are further diluted 1:3, and resulting in 100 k cells/120 μl/well. After 48 hours 40 μl of supernatant is collected carefully from the top while not disturbing the cells. Cells are assessed for proliferation 5 days later by measuring […] using CellTiterGlo (Promega).
Compounds were added in a 5 or 6 pt dose response with the Tecan D300e Digital Dispenser, all conditions 3 times more concentrated than the end-concentration, since cells are added afterwards (80 μl cells to 40 μl prepared medium with treatment). […] The positive control was the reference compound A1 that was added in a dose response as well, additionally to 3 wells of only 20 μM representing the positive stimulator control. All wells were normalized with DMSO to a final concentration of 0.6% (0.2% end-concentration).
After 5 days, for detection of ATP which is directly proportional to the number of cells present per well, the CellTiter-Glo® 2.0 Reagent is used. After visual control for toxicity or precipitations of the tested compounds, the plates are equilibrated to room temperature for 45 minutes. CellTiter-Glo® 2.0 Reagent is equilibrated to room temperature as well. After equilibration, an equal amount of CellTiter-Glo reagent is added to the cells (80 μl/well) with an electronic multichannel pipette. Plates are placed on a rocking platform for 15 minutes at room temperature. After incubation, the bottom of the plates is sealed with backing tape. Luminescence is measured with PHERAstar FSX (interval time 0.5 sec, gain 3000, focal height 15 mm) and exported as CSV file for analysis in Genedata screener.
Calculations and Data Reporting CD3 and PBS plates were analysed separately in Genedata Screener using Roche Normalization PCT_POS_CTRL with DMSO set as Neutral Control and 20 μM of the reference compound A1 set as Stimulator Control/100%.
For CD3 conditions EC50 and Emax of the fitted sigmoidal curve were reported. If no curve could be fitted, the EC50 was reported as blank field and the Emax was based on individual data points. […] Compounds which activate unstimulated cells (see IL2 measurements) or compounds which negatively affected viability were flagged.

[2] = biological target: DGKalpha (hDGKalpha(1-735)-N-His) (Homo sapiens (Human), UniProt P23743); assay: In vitro DGK inhibition assay, ADP-Glo (in house), DGKalpha; assay type: biochemical; details: DLG liposomes, 25 μM ATP, 4 nM enzyme, 1 hour reaction
DGKalpha (hDGKalpha(1-735)-N-His), sequence (P23743 whole entry): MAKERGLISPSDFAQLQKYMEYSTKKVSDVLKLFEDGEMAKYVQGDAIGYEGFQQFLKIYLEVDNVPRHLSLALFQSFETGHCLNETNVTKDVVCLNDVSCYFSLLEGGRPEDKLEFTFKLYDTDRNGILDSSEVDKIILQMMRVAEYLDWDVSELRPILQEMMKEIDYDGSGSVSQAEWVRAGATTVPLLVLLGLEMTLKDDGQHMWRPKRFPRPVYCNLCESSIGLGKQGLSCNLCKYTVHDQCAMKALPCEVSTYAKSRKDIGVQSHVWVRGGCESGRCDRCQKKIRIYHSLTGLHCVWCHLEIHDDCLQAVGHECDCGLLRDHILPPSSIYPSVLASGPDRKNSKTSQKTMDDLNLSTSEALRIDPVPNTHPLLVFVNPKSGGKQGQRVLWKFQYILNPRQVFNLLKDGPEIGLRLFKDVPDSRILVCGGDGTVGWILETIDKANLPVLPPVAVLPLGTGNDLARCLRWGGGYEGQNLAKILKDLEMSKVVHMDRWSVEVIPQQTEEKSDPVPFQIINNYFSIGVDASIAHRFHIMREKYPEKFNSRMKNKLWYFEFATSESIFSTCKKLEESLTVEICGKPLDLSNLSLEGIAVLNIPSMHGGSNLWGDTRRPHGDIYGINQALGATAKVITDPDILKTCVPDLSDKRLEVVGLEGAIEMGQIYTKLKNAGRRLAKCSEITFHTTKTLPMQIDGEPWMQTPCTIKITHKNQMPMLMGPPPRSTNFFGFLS
Method: (§1) DGK α and ζ kinases use ATP to phosphorylate the substrate 1,2-dilauroyl-sn-glycerol (DLG, incorporated in the liposomes). ATP is converted to ADP as a result of this enzymatic reaction.
(§2) After the kinase reaction, an ATP-depletion reagent is added to terminate the kinase reaction and deplete any remaining ATP, leaving only ADP. Second, a detection reagent is added to simultaneously convert ADP to ATP and allow the newly synthesized ATP to be converted to light using a coupled luciferase/luciferin reaction.
(§3) Purification of both enzymes was performed as previously described by Takahashi et al., PeerJ, 2018 (Takahashi, D.; Sakane, F. Expression and purification of human diacylglycerol kinase alpha from baculovirus-infected insect cells for structural studies. PeerJ 2018, 6, No. e5449).
(§4) A concentrated liposome solution was prepared in assay buffer without DTT and BSA: 2 mM of DLG in 21 mM of total liposome (2 mM DLG/8 mM PS/11 mM PC). The reaction mixtures contain the assay buffer with a final DLG concentration of 125 uM ATP concentrations of 25 μM (for DGKA assay) or 50 μM (for DGKZ assay). The reactions were started by addition of DGK α and ζ kinases at 4 nM and 2 nM final concentrations, respectively. After 1 hour reaction, the amount of ADP formed was detected with the ADP-Glo kinase assay (Promega) according to the manufacturer instructions. Compounds were added in 11-points dose response, starting at […], 1:3 dilutions, with a final DMSO concentration of 2%. The multidrop combi was used as a liquid handler and luminescence was read with 0.5 s by the envision reader (PE).

[3] = biological target: DGKzeta (hDGKzeta(1-928)-N-His) (Homo sapiens (Human), UniProt Q13574); assay: In vitro DGK inhibition assay, ADP-Glo (in house), DGKzeta; assay type: biochemical; details: DLG liposomes, 50 μM ATP, 2 nM enzyme, 1 hour reaction
DGKzeta (hDGKzeta(1-928)-N-His), sequence (Q13574 whole entry): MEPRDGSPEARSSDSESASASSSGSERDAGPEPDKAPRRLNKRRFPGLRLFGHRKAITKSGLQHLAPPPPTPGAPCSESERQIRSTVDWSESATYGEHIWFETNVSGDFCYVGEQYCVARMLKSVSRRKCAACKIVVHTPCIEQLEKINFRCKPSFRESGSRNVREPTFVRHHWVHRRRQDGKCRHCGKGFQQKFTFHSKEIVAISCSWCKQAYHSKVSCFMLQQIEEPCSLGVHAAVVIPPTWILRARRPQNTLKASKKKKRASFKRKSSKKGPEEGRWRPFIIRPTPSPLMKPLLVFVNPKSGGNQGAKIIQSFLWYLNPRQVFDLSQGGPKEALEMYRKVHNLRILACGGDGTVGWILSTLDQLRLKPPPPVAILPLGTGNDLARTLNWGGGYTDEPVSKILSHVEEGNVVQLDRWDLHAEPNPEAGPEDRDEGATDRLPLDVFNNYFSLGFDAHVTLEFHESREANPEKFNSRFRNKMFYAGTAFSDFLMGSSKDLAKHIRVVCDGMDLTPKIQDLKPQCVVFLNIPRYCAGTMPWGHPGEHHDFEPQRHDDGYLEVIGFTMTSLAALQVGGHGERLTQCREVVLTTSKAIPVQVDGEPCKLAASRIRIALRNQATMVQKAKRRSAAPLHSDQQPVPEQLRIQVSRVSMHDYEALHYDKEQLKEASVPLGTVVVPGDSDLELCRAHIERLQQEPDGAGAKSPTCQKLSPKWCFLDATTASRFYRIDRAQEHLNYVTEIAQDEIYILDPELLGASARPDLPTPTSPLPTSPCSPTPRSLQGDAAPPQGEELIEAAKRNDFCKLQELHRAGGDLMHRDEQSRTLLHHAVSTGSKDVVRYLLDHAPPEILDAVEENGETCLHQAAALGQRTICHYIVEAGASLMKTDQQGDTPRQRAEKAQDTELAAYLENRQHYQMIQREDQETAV
Method: as §1, §2, §3, §4

primary human T-cells [4] = assay: IL2 secretion measurements in CD3-stimulated T-cells; assay type: cell-based; details: CD3 condition; for Emax IL2 (% activation): 24 hours, 20 μM reference compound A1 = 100%; for EC50: IL2 secretion after 24 hours, read-out: Tcell IL2 CD3 EC50
Method: As readouts for T-cell activation, 1L2 secretion after 24 hours and proliferation after 5 days was measured. Increases in 1L2 secretion and proliferation upon compound treatment were assessed as the % of the maximum of reference compound A1. WO 2016/139181 discloses reference compound A1 as example 70. As a counter screen and to make sure that no unwanted TCR-independent activation was triggered, PBS conditions were run for all compounds.
Expanded primary human T-cells were thawed and cultured in RPMI 1640 (Gibco, #61870-010)+5% human serum (HS, Sigma, #H3667)+1 mM Sodium Pyruvate (Gibco, #11360-039)+50 μM 2-mercaptoethanol (Gibco, #31350-010) and 1× Pen-Strep (Life Technologies, #15140122) medium at density of 2 Mio/ml for 3 hours in 5% CO2, 37° C. and 95% humidity. For coating of plates, […] or PBS++ with CD3 antibody (concentration depending on donor and determined by CD3 titrations) was added 100 μl/well to Poly-D Lysine coated 96-well plates. Plates were sealed and incubated at room temperature for 3 hours on a table-top rocking platform. After incubation, plates were washed once with PBS−− and filled with 40 μl/well culture medium only. Compounds were then added (see next section) to medium only plates. After 3 hours of culturing the T-cells, cells were filtered through a cell strainer (Miltenyi Biotech, #130-041-407), counted again and concentration was adjusted to 1.25 Mio/ml.
Cells were then seeded 80 μl/well to the 40 μl/well including dispensed compounds according to plate layout. By adding cells, compounds were further diluted 1:3, and resulting in 100 k cells/120 μl/well. After 24 hours 40 μl of supernatant was collected carefully from the top while not disturbing the cells and transferred into a round bottom 96 well plate. Collected and frozen supernatant was used for detection of IL2 using the IL-2 Human ProQuantum Immunoassay Kit (Invitrogen) or using the Human IL-2 ELISA Kit (Thermo Fisher).
Compounds were added in a 5 or 6 pt dose response with the Tecan D300e Digital Dispenser, all conditions 3 times more concentrated than the end-concentration, since cells are added afterwards (80 μl cells to 40 μl prepared medium with treatment). The DR was starting at 20 μM or 10 μM final top concentration and a dilution factor of 3.333. The positive control was the reference compound A1 that was added in a dose response as well, additionally to 3 wells of only 20 μM representing the positive stimulator control. All wells were normalized with DMSO to a final concentration of 0.6% (0.2% end-concentration).
The immunoassay is done following the manufacturer's manual (Invitrogen, #A35603). Additional information: For the immunoassay, MicroAmp™ EnduraPlate™ Optical 384-Well plates are used. Frozen supernatant is thawed and centrifuged for 5 minutes at 1000×g, both steps at 4° C. After centrifugation, required sample amount is taken from the top, and in a separate LightCycler V-bottom plate (working plate) diluted with assay dilution buffer, dilution factor depending on the PBS or CD3 condition but at least 1:3. IL-2 standard and blanks are prepared in the same V-bottom plate, standard with a range of […] (extended version). After preparation, 5 μl of sample dilutions or standard/blanks are transferred to the optical 384-well plate (assay plate) and the 10 μl reaction protocol is being followed. For measurement, the QuantStudio 12K Flex system is used. Raw data is extracted and IL-2 concentrations are calculated with the Thermo Fisher online app (apps.thermofisher.com/apps/proquantum).
ELISA is done following the manufacturer's manual (Thermo Fisher Scientific, #88-7025-88). Additional information: For the ELISA Nunc MaxiSorp 96 well plates are used. Frozen supernatant is thawed and centrifuged for 5 minutes at 1000×g, both steps at 4° C. […]

Row | IC50 [2] | IC50 [3] | EC50 (primary human T-cells [4]; Homo sapiens, T-cell) | EC50 (primary human T-cells [4]) | SMILES | Emax proliferation (% activation) (primary human T-cells [1]) | EC50 (primary human T-cells [1]; Homo sapiens, T-cell, 120 h) | Emax IL2 (% activation) (primary human T-cells [4]) | EC50 (primary human T-cells [1])
1 | 24500 nM | 1500 nM | 1560 nM |  | CC(C)(C)c1nncc(-c2cc3c(cc2F)S(=O)(=O)C[C@H](N)C(=O)N3Cc2ccc(-c3noc(C(F)(F)F)n3)cc2)n1 [Example 36, (3R)-3-amino-8-fluoro-1,1-dioxo-7(3R)-3-amino-7-(3-tert-butyl-1,2,4-triazin-5-yl)-8-fluoro-1,1-dioxo-5-[[4-[5-(trifluoromethyl)-1,2,4-oxadiazol-3-yl]phenyl]methyl]-2,3-dihydro-1λ6,5-benzothiazepin-4-one] | 108 % activation | 1350 nM | 88 % activation | 
2 | 19900 nM | 17200 nM |  | 3130 nM | CC(C)(C)c1cc(-c2cc3c(cc2F)S(=O)(=O)C[C@@H](N)C(=O)N3Cc2ccc(-c3noc(C(F)(F)F)n3)cc2)cnn1 [Example 35] | 132 % activation |  | 480 % activation | 1040 nM
3 | 13400 nM | 7560 nM | 1400 nM |  | CC(C)(C)c1cc(-c2cc3c(cc2F)S(=O)(=O)C[C@H](N)C(=O)N3Cc2ccc(-c3noc(C(F)(F)F)n3)cc2)cnn1 [Example 34, (3R)-3-amino-7-(6-tert-butylpyridazin-4-yl)-8-fluoro-1,1-dioxo-5-[[4-[5-(trifluoromethyl)-1,2,4-oxadiazol-3-yl]phenyl]methyl]-2,3-dihydro-1λ6,5-benzothiazepin-4-one] | 127 % activation | 361 nM | 96 % activation | 

Continued, compound first:

Row | SMILES | IC50 [2] | IC50 [3] | EC50 (primary human T-cells [4]; Homo sapiens, T-cell) | EC50 (primary human T-cells [4]) | Emax proliferation (% activation) (primary human T-cells [1]) | EC50 (primary human T-cells [1]; Homo sapiens, T-cell, 120 h) | Emax IL2 (% activation) (primary human T-cells [4]) | EC50 (primary human T-cells [1])
4 | N[C@H]1CS(=O)(=O)c2cc(F)c(-c3cnnc(OCC(F)(F)F)c3)cc2N(Cc2ccc(-c3noc(C(F)(F)F)n3)cc2)C1=O [Example 33, (3R)-3-amino-8-fluoro-1,1-dioxo-7-[6-(2,2,2-trifluoroethoxy)pyridazin-4-yl]-5-[[4-[5-(trifluoromethyl)-1,2,4-oxadiazol-3-yl]phenyl]methyl]-2,3-dihydro-1λ6,5-benzothiazepin-4-one] | 22200 nM | 20000 nM | 2230 nM |  | 103 % activation | 298 nM | 154 % activation | 
5 | N[C@H]1CS(=O)(=O)c2cc(F)c(-c3cncc(C(F)(F)F)c3)cc2N(Cc2ccc(-c3noc(C(F)(F)F)n3)cc2)C1=O [Example 24, (3R)-3-amino-8-fluoro-1,1-diketo-5-[4-[5-(trifluoromethyl)-1,2,4-oxadiazol-3-yl]benzyl]-7-[5-(trifluoromethyl)-3-pyridyl]-2,3-dihydro-1λ6,5-benzothiazepin-4-one] | 55200 nM | 23700 nM | 1940 nM |  | 141 % activation | 699 nM | 235 % activation | 
6 | N[C@H]1CS(=O)(=O)c2cc(F)c(-c3nncc(N4CCC(F)(F)CC4)n3)cc2N(Cc2ccc(Cl)cc2)C1=O [Example 17, (3R)-3-amino-5-[(4-chlorophenyl)methyl]-7-[5-(4,4-difluoro-1-piperidyl)-1,2,4-triazin-3-yl]-8-fluoro-1,1-dioxo-2,3-dihydro-1λ6,5-benzothiazepin-4-one] | 7880 nM | 650 nM | 449 nM |  | 104 % activation | 342 nM | 62 % activation | 
7 | COC(=O)N1CC2CC(c3cnnc(-c4cc5c(cc4F)S(=O)(=O)C[C@H](N)C(=O)N5Cc4ccc(Cl)cc4)n3)(C2)C1 [Example 18, methyl 1-[3-[(3R)-3-amino-5-[(4-chlorophenyl)methyl]-8-fluoro-1,1,4-trioxo-2,3-dihydro-1λ6,5-benzothiazepin-7-yl]-1,2,4-triazin-5-yl]-3-azabicyclo[3.1.1]heptane-3-carboxylate] | 4590 nM | 1130 nM | 1830 nM |  | 79 % activation | 2720 nM | 61 % activation | 
